In ChEMBL document CHEMBL1122669, “Hypolipidemic activity of phthalimide derivatives. 7. Structure-activity studies of indazolone analogues” (1984):

Experiments:
Format in all cases: functional
Mus musculus [1] = experiment: Reduction of serum triglycerides in CF1 male mice on day 16 following 20 mg/kg/day i.p. administration.; conditions: route intraperitoneal
Mus musculus [2] = experiment: Reduction of serum cholesterol in CF1 male mice on day 9 following 20 mg/kg/day i.p. administration.; conditions: route intraperitoneal
Mus musculus [3] = experiment: Reduction of serum cholesterol in CF1 male mice on day 16 following 20 mg/kg/day i.p. administration.; conditions: route intraperitoneal
Mus musculus [4] = experiment: Hypolipidemic effects in CF1 male mice at a dose 150 mg/(kg day), ip, percent control of serum triglyceride was determined on day 16
Mus musculus [5] = experiment: Hypolipidemic effects in CF1 male mice at a dose 150 mg/(kg day), ip,percent control of serum cholesterol was determined on day 9
Mus musculus [6] = experiment: Hypolipidemic effects in CF1 male mice at a dose 150 mg/(kg day), ip, percent control of serum cholesterol was determined on day 16

SMILES	Serum triglycerides, % of control (Mus musculus [1]) [%]	Serum cholesterol, percent of control (Mus musculus [2]) [%]	Serum cholesterol, percent of control (Mus musculus [3]) [%]	Control (Mus musculus [4]) [%]	Control (Mus musculus [5]) [%]	Control (Mus musculus [6]) [%]
O=c1c2ccccc2[nH]n1Cc1ccccc1	58	83	72			
Oc1n[nH]c2ccccc12	75	96	80			
Cn1[nH]c2ccccc2c1=O	72	92	69			
CCCCn1[nH]c2ccc(C)cc2c1=O	81	95	97			
CCn1[nH]c2ccccc2c1=O	71	98	71			
CC(=O)c1ccc(Cn2[nH]c3ccccc3c2=O)cc1	50	76	75			
CCCCn1[nH]c2cc(Cl)ccc2c1=O	69	98	75			
CC(=O)CCn1[nH]c2ccccc2c1=O	46	78	46			
CCCn1[nH]c2ccccc2c1=O	77	92	68			
CC(=O)c1ccccc1Cn1[nH]c2ccccc2c1=O	41	98	60			
O=c1c2ccccc2[nH]n1CCO	63	97	83			
CCCCn1[nH]c2ccccc2c1=O	44	92	46			
CC(=O)c1cccc(Cn2[nH]c3ccccc3c2=O)c1	56	86	70			
CCCCn1[nH]c2ccc(Cl)cc2c1=O	83	76	74			
O=c1c2ccccc2[nH]n1CCCO	72	96	83			
CCCCCn1[nH]c2ccccc2c1=O	77	79	73			
CCOC(=O)n1[nH]c(=O)c2ccccc21	61	78	60			
CCOC(=O)n1c2ccccc2c(=O)n1CCC(=O)O	70	88	77			
CCOC(=O)C(C)(C)Oc1ccc(Cl)cc1 [CLOFIBRATE]				75	92	87
O=C1NC(=O)c2ccccc21 [PHTHALIMIDE]	44	63	57			
